Test results reported in ChEMBL document CHEMBL3879885 (2006).

Each molecule was assayed against T1, Potassium voltage-gated channel subfamily A member 3 (Homo sapiens, UniProt P22001) (assay: Inhibition of Kv1.3 (unknown origin)). Conditions: not given.
Assay type: single protein

T1 sequence (P22001 whole entry): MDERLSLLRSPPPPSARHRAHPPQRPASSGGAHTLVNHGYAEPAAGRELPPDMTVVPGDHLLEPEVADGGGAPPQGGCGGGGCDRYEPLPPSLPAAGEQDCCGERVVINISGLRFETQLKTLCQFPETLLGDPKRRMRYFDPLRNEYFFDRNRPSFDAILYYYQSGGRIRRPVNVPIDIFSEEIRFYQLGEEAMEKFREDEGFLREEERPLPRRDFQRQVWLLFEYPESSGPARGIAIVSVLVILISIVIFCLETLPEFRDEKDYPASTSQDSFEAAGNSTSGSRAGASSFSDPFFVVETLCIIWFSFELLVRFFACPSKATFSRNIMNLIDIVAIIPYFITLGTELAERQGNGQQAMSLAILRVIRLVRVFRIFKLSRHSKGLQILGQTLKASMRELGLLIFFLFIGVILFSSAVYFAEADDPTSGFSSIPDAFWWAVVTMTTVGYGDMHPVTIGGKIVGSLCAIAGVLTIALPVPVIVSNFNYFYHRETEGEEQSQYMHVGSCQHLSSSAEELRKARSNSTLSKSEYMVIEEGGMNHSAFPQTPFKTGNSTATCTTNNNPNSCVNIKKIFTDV

Row | Compound | EC50 [nM]
1 | O=c1ccc2c(OCCCOCc3ccccc3)c3ccoc3cc2o1 | 50
2 | CCc1ccc(OCCCOc2c3ccoc3cc3oc(=O)ccc23)cc1 | 14
3 | COc1cccc(OCCCOc2c3ccoc3cc3oc(=O)ccc23)c1 | 45
4 | O=c1ccc2c(OCCCCOc3ccc(Oc4ccccc4)cc3)c3ccoc3cc2o1 | 16
5 | O=C(CCCOc1c2ccoc2cc2oc(=O)ccc12)c1ccccc1 | 31
6 | Cc1nnc(SCCCCOc2c3ccoc3cc3oc(=O)ccc23)s1 | 175
7 | N#CCCCCOc1c2occc2cc2ccc(=O)oc12 | 5000
8 | O=c1ccc2c(OCCCCn3cccn3)c3ccoc3cc2o1 | 450
9 | COc1ccc2sc(SCCCCOc3c4ccoc4cc4oc(=O)ccc34)nc2c1 | 35
10 | O=c1ccc2c(OCCCCSc3ncccn3)c3ccoc3cc2o1 | 50
11 | COc1cccc(OCCCCOc2c3ccoc3cc3oc(=O)ccc23)c1 | 21
12 | O=c1ccc2c(OCCCCOCc3ccccc3)c3ccoc3cc2o1 | 49
13 | O=c1ccc2ccc(OCCCCOc3c4ccoc4cc4oc(=O)ccc34)cc2o1 | 125
14 | O=c1ccc2c(OCCOCc3ccccc3)c3ccoc3cc2o1 | 10
15 | O=c1ccc2c(OCCCCOc3ccc(Cl)cc3)c3ccoc3cc2o1 | 5
16 | O=c1ccc2c(OCCCCOc3cccc4ccccc34)c3ccoc3cc2o1 | 20
17 | O=c1ccc2c(OCCCCOc3cccc(C(F)(F)F)c3)c3ccoc3cc2o1 | 65

Row | Compound | EC50 [nM]
18 | Cc1ccc(OCCCCOc2c3ccoc3cc3oc(=O)ccc23)cc1 | 7
19 | COc1cc(OC)cc(OCCCCCOc2c3ccoc3cc3oc(=O)ccc23)c1 | 32
20 | COc1ccc(OCCCCOc2c3ccoc3cc3oc(=O)ccc23)cc1 | 8
21 | O=c1ccc2c(OCCCCOc3ccc([N+](=O)[O-])cc3)c3ccoc3cc2o1 | 7
22 | Cc1ccc(OCCCCOc2c3ccoc3cc3oc(=O)ccc23)c([N+](=O)[O-])c1 | 700
23 | COc1cc(OC)cc(OCCCCOc2c3ccoc3cc3oc(=O)ccc23)c1 | 120
24 | O=c1ccc2c(OCCCCOc3ccc4ccccc4c3)c3ccoc3cc2o1 | 12
25 | CCc1ccc(OCCCCCOc2c3ccoc3cc3oc(=O)ccc23)cc1 | 35
26 | CCc1ccc(OCCCCOc2c3ccoc3cc3oc(=O)ccc23)cc1 | 13
27 | N#CCCCCOc1c2ccoc2cc2oc(=O)ccc12 | 1300
28 | COc1cc(OC)cc(OCCCOc2c3ccoc3cc3oc(=O)ccc23)c1 | 75
29 | O=c1ccc2c(OCCCCCOc3ccccc3)c3ccoc3cc2o1 | 15
30 | O=c1ccc2c(OCCCOc3ccc(Cl)cc3)c3ccoc3cc2o1 | 10
31 | O=c1ccc2c(OCCCOc3ccccc3)c3ccoc3cc2o1 | 15
32 | N#CCCCOc1c2occc2cc2ccc(=O)oc12 | 5000
33 | N#CCCCOc1c2ccoc2cc2oc(=O)ccc12 | 5000

These molecules were tested against Potassium voltage-gated channel subfamily A member 2 (Homo sapiens, UniProt P16389) (assay: Inhibition of Kv1.2 (unknown origin)). Conditions: not given.
Sequence of Potassium voltage-gated channel subfamily A member 2 (P16389 whole entry): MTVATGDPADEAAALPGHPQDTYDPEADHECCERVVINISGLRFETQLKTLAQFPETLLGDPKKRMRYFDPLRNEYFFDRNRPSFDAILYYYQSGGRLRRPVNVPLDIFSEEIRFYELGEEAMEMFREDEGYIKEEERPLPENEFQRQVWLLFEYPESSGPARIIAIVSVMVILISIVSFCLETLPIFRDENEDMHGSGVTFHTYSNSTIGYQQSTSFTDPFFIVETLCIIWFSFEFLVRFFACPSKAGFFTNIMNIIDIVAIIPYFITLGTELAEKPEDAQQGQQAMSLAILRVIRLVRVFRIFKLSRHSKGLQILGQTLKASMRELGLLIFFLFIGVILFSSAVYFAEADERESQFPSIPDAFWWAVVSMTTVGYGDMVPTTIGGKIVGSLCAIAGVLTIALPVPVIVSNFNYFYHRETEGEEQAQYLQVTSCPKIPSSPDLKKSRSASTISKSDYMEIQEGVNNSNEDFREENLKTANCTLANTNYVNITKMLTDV

Row | Compound | EC50 [nM]
34 | O=c1ccc2c(OCCCCOc3ccccc3)c3ccoc3cc2o1 | 250

What follows are molecules tested against T1, Potassium voltage-gated channel subfamily A member 3 (assay: Ratio of IC50 for Kv1.3 in human central memory T cells to IC50 for Kv1.3 in CD4+ MBP-specific multiple sclerosis patient effector memory T lymphocytes stimulated with 3 times MBP). Conditions: T-cell.
Assay type: cell-based

Row | Compound | Ratio IC50
35 | CC[C@H](C)[C@@H]1NC(=O)[C@@H](NC(=O)[C@H](CO)NC(=O)[C@@H](N)CCCNC(=N)N)CSSC[C@@H](C(=O)O)NC(=O)[C@H]([C@@H](C)O)NC(=O)CNC(=O)[C@@H]2CSSC[C@@H]3NC(=O)[C@H](CCC(N)=O)NC(=O)[C@H](Cc4ccccc4)NC(=O)[C@H](C)NC(=O)[C@H]([C@@H](C)O)NC(=O)[C@H](CSSC[C@H](NC(=O)[C@H](Cc4ccccc4)NC(=O)[C@@H](CO)NC(=O)[C@@H](CC(C)C)NC(=O)[C@H](CCCNC(=N)N)NC(=O)[C@H](Cc4ccc(O)cc4)NC(=O)[C@H](CCCCN)NC(=O)[C@H](CCSC)NC(=O)[C@H](CO)NC(=O)[C@H](Cc4cnc[nH]4)NC(=O)[C@H](CCCCN)NC3=O)C(=O)N[C@@H](CCCNC(=N)N)C(=O)N[C@@H](CCCCN)C(=O)N[C@@H]([C@@H](C)O)C(=O)N2)NC(=O)[C@H](CCCNC(=N)N)NC(=O)[C@H](CO)NC(=O)[C@H](CCCCN)NC(=O)[C@@H]2CCCN2C(=O)[C@H]([C@@H](C)CC)NC(=O)[C@H]([C@@H](C)O)NC(=O)[C@H](CC(=O)O)NC1=O | 10
